{"source": "patent US8637573B2", "about": "(Iasomai AB, priority 2009, dated 2014)", "key": {"Ki-67": {"test_system": "Ki-67", "experiment": "Ki-67 immunohistochemistry (labeling index) in cysts from mice", "format": "in vivo, BALB/C mice", "conditions": "44 mg/kg/day, 21 days", "protocol": "(§1) The day after the endometrial implant, mice of the treatment group were subjected to gavage with 100 [mu] […] The control group only received water. […] At the end of treatment, mice were killed through cervical dislocation.\n(§2) Formalin-fixed samples were paraffin-embedded and tissue sections (5 [mu] [iota] [eta] thick) were stained using haematoxylin-eosin. All slides were evaluated by an experienced pathologist who was blind to the study and the histological diagnosis of endometriosis was based on the morphological identification of endometrial glandular tissue and stroma.\n(§3) For immunohistochemistry, sections were deparaffinized and rehydrated in graded ethanol. For antigen retrieval, sections were microwaved for 6 min in 0.1 M citrate buffer (pH 6.0) and endogenous peroxidase activity was blocked by a 20 min incubation in 3% H202/methanol. Sections were rinsed in PBS/TritonX-100, immersed for 15 min in PBS-bovine serum albumin (BSA) 1% to block unspecific binding sites, and then incubated with the selected primary antibody diluted in PBS-BSA 1%. […] The quantification of Ki-67 expression was carried out in a blind fashion by two independent observers; each observer counted at least 200 cells in more than 10 randomly chosen fields for each sample and the Ki-67 labeling index was expressed in percentage."}, "[1]": {"experiment": "Preliminary clinical study: pain intensity by 10-points visual analogue scale (VAS)", "format": "in vivo, women", "conditions": "NAC-treated patients, 10-points VAS", "protocol": "(§4) Before treatment, the intensity of pain symptoms was measured by the means of a 10 points visual analogue scale (VAS) and the characteristics of the ovarian endometriomas by transvaginal ultrasounds. During NAC treatment, other treatments are excluded with the exception of analgesic to treat pain, when needed. Patients.\n(§5) From February 2008 to July 2010, 64 women diagnosed for ovaric endometriosis were enrolled in the study, with a mean age of 35+−7 years (+−SD). […] All of them presented one or more cysts at one or both ovaries.\n(§6) 1995; 4:245-51), the suspension of the treatment for about half of each week warrants an optimal biological response in a lengthy treatment, e.g. two to six months or longer.\n(§7) Pain symptoms intensity (VAS pain scale) and the size of the ovarian endometriomas (clinical and US exams) were evaluated after the first three months of treatment. If necessary, laparoscopic treatment was performed after 3 months.\nPain perception was also modified after NAC treatment. Pain was evaluated, before and after the three-months treatment, by a 10-points visual analogue scale (VAS) with zero representing no pain and 10 representing the worst imaginable pain. Intensity of symptoms were classified as none (0), mild (1-4), moderate (5-7), or severe (8-10). NAC-treated patients reported an average pain reduction, from 7.6+−0.3 to 5.1+−0.8 (p<0.01) after three months of treatment."}, "ovarian endometriomas": {"test_system": "ovarian endometriomas", "experiment": "Preliminary clinical study: size of ovarian endometriomas by ultrasound", "format": "in vivo", "conditions": "women", "protocol": "Women with a first diagnosis of endometriosis, based on pain and on ovarian ultrasound evidence of the disease, and patients with a recurrence of pain and/or ovarian endometrioma after laparoscopic treatment were enrolled in the study,\nas §4, §5, §6, §7"}, "P21 (cdkn1a)": {"test_system": "P21 (cdkn1a)", "experiment": "RT-PCR of P21 gene expression in cysts from mice", "format": "in vivo, BALB/C mice", "conditions": "44 mg/kg/day, 21 days", "protocol": "as §1\nTotal RNA was isolated by lysing the frozen endometrial cysts with TissueLyser (QIAGEN, Milan, Italy) using TRIzol Reagent (Invitrogen, Milan, Italy) according to the manufacturer's instructions. One microgram of total RNA from each sample was treated with 1 U of DNAse I (Invitrogen) and reverse transcribed with 200 U of Superscript III Reverse Transcriptase (Invitrogen), using 250 ng of random primers in 20 [mu] l of final volume. […]\nFirst, the ratio between the sample and the housekeeping gene was calculated by simultaneous amplification of gene-specific mRNA and 18S RNA in a single reaction tube. Since this procedure was not successful for all samples—likely due to the relative small number of specific transcripts thus of a preferential amplification of 18S mRNA—to prevent quantitative inaccuracies deriving from competitive effects, the target genes and 18 S cDNA generated in the same RT reaction were amplified in separate tubes. […] Semi quantitative PCR was performed in a 25 [mu] […] The densitometric analyses of the PCR products were performed using an image software Quantity One (VersaDOC, Bio-Rad)."}, "endometriotic lesions": {"test_system": "endometriotic lesions", "experiment": "Murine model of endometriosis: growth (total weight) of endometriotic lesions", "format": "in vivo, BALB/C mice", "conditions": "mice, gavage 44 mg/kg/day daily for 21 days; n=10 vs n=10; p<0.05", "protocol": "36 female, 6 to 8 weeks-old BALB/C mice were purchased from Charles River Italia (Calco, Italy). Pellet food (enriched standard diet; Mucedola, Milan, Italy) and water were provided ad libitum. Animals were kept on a light/dark cycle of 16/8 hours under controlled conditions. Prior to any invasive procedure, the mice were anaesthetized by intraperitoneal injection of 0.4 ml of a physiological solution containing 2.5% AVERTIN.\nInduction of endometriosis was performed following the method described in Somigliana et al, Hum Reprod 1999 December; 14(12):2944-50. Surgical interventions were performed under clean conditions. Briefly, uterine horns of syngenic mice were removed through a small midline incision into the peritoneal space, just below the umbilicus, and put into a Petri dish containing phosphate-buffered saline (PBS). Endometrial fragments were obtained by finely chopping uterine horns by using a razor blade. Fragments were suspended in 0.6 ml of PBS and rapidly inoculated into the peritoneal cavity of recipient mice with a ratio of one donor to two recipients. The endometriosis-induced mice were randomly divided into two groups of 12 mice each: control and NAC-treatment. […]\nAt the end of the treatment, animals were sacrificed and endometriotic lesions were carefully excised from the surrounding tissue, their total weight and number was assessed. […]"}, "[2]": {"conditions": "cited from earlier work"}, "Cox-2 protein": {"test_system": "Cox-2 protein", "experiment": "Immunohistochemical detection of Cox-2 protein in cysts from mice", "format": "in vivo, BALB/C mice", "conditions": "44 mg/kg/day, 21 days", "protocol": "as §1, §2, §3"}, "[3]": {"experiment": "Preliminary clinical study: side effects, pregnancy and other observations", "format": "in vivo, women", "source_text": "as §5, §6, §7"}, "E-cadherin": {"test_system": "E-cadherin", "experiment": "Immunohistochemical detection of E-cadherin in cysts from mice", "format": "in vivo, BALB/C mice", "conditions": "44 mg/kg/day, 21 days, controls: diffused all over cell cytoplasm", "protocol": "as §1, §2, §3"}, "[4]": {"experiment": "Toxicity observation in the murine endometriosis model", "format": "in vivo", "conditions": "mice, 44 mg/kg/day by gavage, 21 days", "source_text": "as §1"}, "vaginal hyperalgesia": {"test_system": "vaginal hyperalgesia", "experiment": "Experimentally induced endometriosis in rats: escape response to vaginal distention (vaginal hyperalgesia)", "format": "in vivo, Sprague-Dawley rats", "conditions": "60 mg/kg/day, 8 weeks, 0.5 ml distension volume", "procedure": "16 adult virgin female Sprague-Dawley rats were used. They weighed 200-230 g at the start of the study and were housed individually in a temperature-controlled room in plastic cages lined with bedding. The rats had ad libitum access to water and rat chow and were maintained on a 12-h light/dark cycle, with lights on at 07:00. Reproductive status (proestrus, estrus, metestrus, and diestrus) was determined by daily vaginal lavage performed. Prior to induction of endometriosis rats were trained to perform an escape response to terminate vaginal distention produced by an inflatable latex balloon. A small uninflated latex balloon was tied to a thin catheter lubricated before being inserted into the mid-vaginal canal. Inflating the balloon with different volumes of air distended the vaginal canal. The pressure produced by each volume of distention was control measured through a small-volume pressure transducer. The testing apparatus was a small cylindrical plexiglass chamber designed to contain the rat just enough to prevent her from turning around. An opening in the rear of the chamber allowed the catheter attached to the vaginal stimulator to be connected to a stimulus apparatus. A photosensor determined the position of the rat in the chamber. If the rat extended, as part of an escape response, the light beam was broken and the stimulus was terminated. The rats were adopted to the testing chamber by placing it in the chamber for 15 min daily for 5 days. The rats were then, during training sessions, accustomed to a mechanical escape response to deflate vaginal distension, which involved the rat extending her head to interrupt the light beam. […] Time to response and escape responses were measured as a function of distention volume for each session, as described in Cason A M et al (Horm Behav. (2003), Vol. 44, pages 123-31). […] For each rat, the escape responses and pressures/volumes for all of that rat's sessions (at least 12 sessions) were combined, and the mean values calculated. […] The escape response to terminate vaginal distention, as described above, was assessed after 8 weeks."}}, "data": [{"smiles": "CC(=O)N[C@@H](CS)C(=O)O", "note": "[NAC, N-acetyl-L-cysteine]", "values": [{"measurement": "reduction in proliferating cells (Ki-67) relative to control mice", "setting": "Ki-67; 8 animals per group", "value": 54, "unit": "%"}, {"measurement": "Labeling index for Ki-67 with standard error", "setting": "Ki-67; n = 8 × 5, p < 0.01", "value": "0.87 ± 0.11", "unit": "%"}, {"measurement": "average pain (VAS) after three months of treatment", "setting": "[1]; 1.8 g per day three days each week, p<0.01", "value": "5.1+−0.8"}, {"measurement": "average pain (VAS) before treatment", "setting": "[1]; baseline", "value": "7.6+−0.3"}, {"measurement": "cases with a decrease in cyst size (maximum diameter by ultrasound)", "setting": "ovarian endometriomas; 1.8 g NAC per day, three consecutive days each week, three months, controls less than 10%", "value": 38, "unit": "%"}, {"measurement": "patients who decided to cancel or postpone the programmed laparoscopy", "setting": "ovarian endometriomas; NAC treatment three months", "value": "21 out of 33"}, {"measurement": "P21 gene expressed, number of examined NAC-treated samples", "setting": "P21 (cdkn1a); never expressed in the 5 controls", "value": "3 of the 5"}, {"measurement": "P21 observed, percent of NAC-treated animals", "setting": "P21 (cdkn1a); not expressed in controls", "value": 60, "unit": "%"}, {"measurement": "total weight of endometriotic lesions vs controls", "setting": "endometriotic lesions", "value": "significant weight reduction"}, {"measurement": "time to peak concentration in plasma", "setting": "[2]; in vivo", "value": "about one"}, {"measurement": "time to total clearance", "setting": "[2]; in vivo", "value": "six and twelve"}, {"measurement": "half-life", "setting": "[2]; plasma", "value": "about three"}, {"measurement": "Cox-2 protein immunohistochemical staining relative to cysts from control mice", "setting": "Cox-2 protein", "value": "quite a decreased staining"}, {"measurement": "cases of pregnancy", "setting": "[3]; NAC-treated women, no statistical significance attributed", "value": "three"}, {"measurement": "bleeding during laparoscopy after NAC treatment", "setting": "[3]; anecdotic observation by surgeon, endometrioma more regular and compact", "value": "relevant reduction in bleeding"}, {"measurement": "recto-vaginal septum nodule", "setting": "[3]; one additional case", "value": "disappeared"}, {"measurement": "adverse side effects", "setting": "[3]; women, 1.8 g NAC per day, three days each week, three months", "value": "No adverse side effects"}, {"measurement": "E-cadherin localisation in cysts", "setting": "E-cadherin", "value": "mainly detected along cell-cell junctions"}, {"measurement": "body weight at the end of treatment", "setting": "[4]", "value": "unchanged"}, {"measurement": "relative reduction in escape response in relation to sham treated group", "setting": "vaginal hyperalgesia; daily NAC treatment", "value": 18, "unit": "%"}, {"measurement": "relative reduction in escape response in relation to sham treated group", "setting": "vaginal hyperalgesia; intermittent NAC treatment (5 days and 2 days rest)", "value": 28, "unit": "%"}, {"measurement": "relative reduction in escape response in relation to sham treated group", "setting": "vaginal hyperalgesia; pulsed NAC treatment (every other day)", "value": 32, "unit": "%"}]}]}
